Literature values in patent US20120015880A1 (priority 2008, published 2012).
Like-named read-outs stand apart in the source and are kept apart here.

Conditions: in vivo

NC(=O)CC[C@@H]1NC(=O)[C@H](Cc2ccccc2)NC(=O)[C@H](Cc2ccc(O)cc2)NC(=O)CCSSC[C@@H](C(=O)N2CCC[C@H]2C(=O)N[C@H](CCCN=C(N)N)C(=O)NCC(N)=O)NC(=O)[C@H](CC(N)=O)NC1=O [desmopressin, 1-desamino-8-D-arginine vasopressin]
bioavailability (human): ~100% | half life (human): ~1.5 h | bioavailability (human, inhaled or intranasal): 3-5% | range of Cmax between patients (human, inhaled or intranasal): 6-10 fold | bioavailability (po): far less than one percent
